Earlier results in EP4659596A1 (Nicoventures Trading Limited, priority 2024, dated 2025).

conditions: partition coefficient between octanol and water; organic acids of Table 1

Q: With isopropyl benzoic acid as the compound, how does the logP read?
A: 3.5

Q: With `CC(C)[C@@H]1CC[C@@H](C)C[C@H]1OC(=O)CCC(=O)O` [monomenthyl succinate] as the compound, how does the logP read?
A: 3

Q: With ethyl benzoic acid as the compound, how does the logP read?
A: 2.9
